According to patent US6410792B1, “Amide derivatives and methods for using the same as selective neuropeptide Y receptor antagonists” (Bayer Corporation, priority 1997, dated 2002):
pIC50: −log10 of the molar value. Where a name gives a salt, the structure may show the parent alone. Read-outs that look alike come from different tables or passages of the source.

Columns and labels:
Human NPY5 receptor = biological target: T1, Human NPY5 receptor (Homo sapiens, UniProt Q15761); assay: Human NPY5 receptor binding assay ([125I]PYY, membrane protein); details: read-out: hNPY5 IC50
T1 sequence (Q15761 1-445): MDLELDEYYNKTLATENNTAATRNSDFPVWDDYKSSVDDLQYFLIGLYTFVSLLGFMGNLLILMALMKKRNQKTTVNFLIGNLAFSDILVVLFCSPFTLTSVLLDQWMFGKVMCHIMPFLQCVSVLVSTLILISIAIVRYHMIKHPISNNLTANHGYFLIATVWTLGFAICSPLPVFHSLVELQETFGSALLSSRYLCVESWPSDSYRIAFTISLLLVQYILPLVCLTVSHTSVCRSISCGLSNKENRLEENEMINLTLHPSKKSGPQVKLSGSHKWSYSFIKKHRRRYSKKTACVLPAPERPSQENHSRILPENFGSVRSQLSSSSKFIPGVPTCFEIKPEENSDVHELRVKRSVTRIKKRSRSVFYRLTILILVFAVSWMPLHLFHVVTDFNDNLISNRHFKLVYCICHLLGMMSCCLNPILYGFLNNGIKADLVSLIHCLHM
Outline: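 Filter binding with membrane protein and porcine [125I]PYY at 75-100 pM, 2 h at room temperature; nonspecific binding set by 1 μM PYY.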

Rat NPY5 receptor = biological target: T2, Rat NPY5 receptor (Rattus norvegicus, UniProt Q63634); assay: Rat NPY5 receptor binding assay ([125I]PYY, membrane protein)
T2 sequence (Q63634 1-445): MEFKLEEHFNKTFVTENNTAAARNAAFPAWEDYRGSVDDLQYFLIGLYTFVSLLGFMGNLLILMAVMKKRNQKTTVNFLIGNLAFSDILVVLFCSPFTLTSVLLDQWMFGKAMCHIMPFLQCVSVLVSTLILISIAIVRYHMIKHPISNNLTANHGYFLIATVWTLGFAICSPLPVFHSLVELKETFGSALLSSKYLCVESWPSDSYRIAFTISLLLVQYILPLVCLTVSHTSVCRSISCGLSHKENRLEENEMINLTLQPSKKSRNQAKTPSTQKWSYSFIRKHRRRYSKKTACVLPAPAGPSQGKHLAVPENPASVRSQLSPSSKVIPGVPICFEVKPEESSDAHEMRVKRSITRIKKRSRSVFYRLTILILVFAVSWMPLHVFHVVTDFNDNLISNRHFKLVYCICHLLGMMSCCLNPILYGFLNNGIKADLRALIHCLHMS
Procedure: C. Human and Rat NPY5 Receptor Binding Assays
Binding assays are performed on GF/C Millipore 96well plates pretreated with 0.02% polyethylenimine. The binding buffer is 25 mM Tris, 120 mM NaCl, 5 mM KCl, 1.2 mM KH2PO4, 2.5 mM CaCl2, 1.2 mM MgSO4, 0.1% BSA and 0.5 mg/ml bacitracin, pH 7.4. Samples consist of membrane protein, 75-100 pM [125I]PYY (porcine, NEN-DuPont) and drug dilution. Nonspecific binding is defined by 1 μM PYY. After a 2 hour incubation at room temperature with constant mixing, the samples are aspirated on a vacuum manifold, and rinsed with ice-cold binding buffer. The amount of radioactivity in each well is quantitated with either gamma counting or liquid scintillation.

[1] = [125I]PYY binding, read-out: rNPY5 IC50
[2] = [125I]PYY, read-out: rNPY5 IC50

Compound: CC(C)(C)OC(=O)NC1CCN(CC(=O)Nc2ccc(C3CCCCC3)cc2)C1 (stereo not drawn) [Compound 194, {1-[(4-Cyclohexyl-phenylcarbamoyl)-methyl]-pyrrolidin-3-yl}-carbamic acid tert-butyl ester]
- pIC50 (Human NPY5 receptor; [125I]PYY binding): 7.43
- pIC50 (Rat NPY5 receptor; [1]): 7.46

Compound: CC(C)(C)OC(=O)NC1CCN(CC(=O)Nc2ccc(C3CCCCC3)cc2)C1 (stereo not drawn) [Compound 195, {1-[(4-Cyclohexyl-phenylcarbamoyl)-methyl]-pyrrolidin-3-yl}-carbamic acid tert-butyl ester]
- pIC50 (Human NPY5 receptor; [125I]PYY binding): 7.59
- pIC50 (Rat NPY5 receptor; [1]): 7.59

Compound: CNC1CCN(CC(=O)Nc2ccc(C3CCCCC3)cc2)C1 (stereo not drawn) [Compound 198, N-(4-Cyclohexyl-phenyl)-2-(3-methylamino-pyrrolidin-1-yl)-acetamide]
- pIC50 (Human NPY5 receptor; [125I]PYY binding): 6.00
- pIC50 (Rat NPY5 receptor; [1]): 5.89

Compound: CCNC1CCN(CC(=O)Nc2ccc(C3CCCCC3)cc2)C1 (stereo not drawn) [Compound 199, N-(4-Cyclohexyl-phenyl)-2-(3-ethylamino-pyrrolidin-1-yl)-acetamide]
- pIC50 (Human NPY5 receptor; [125I]PYY binding): 6.09
- pIC50 (Rat NPY5 receptor; [1]): 5.62

Compound: O=C(CN1CCC(CO)CC1)Nc1ccc(C2CCCCC2)cc1 [Compound 200, N-(4-Cyclohexyl-phenyl)-2-(4-hydroxymethyl-piperidin-1-yl)-acetamide]
- pIC50 (Human NPY5 receptor; [125I]PYY binding): 6.28
- pIC50 (Rat NPY5 receptor; [1]): 6.47

Compound: COc1cc(CCNCC(=O)Nc2ccc(C(=O)c3ccccc3)cc2)ccc1O [Compound 202, N-(4-Benzoyl-phenyl)-2-[2-(4-hydroxy-3-methoxy-phenyl)-ethylamino]-acetamide]
- pIC50 (Human NPY5 receptor; [125I]PYY binding): 7.24
- pIC50 (Rat NPY5 receptor; [1]): 7.28

Compound: CNC1CCN(CC(=O)Nc2ccc(C(=O)c3ccccc3)cc2)C1 (stereo not drawn) [Compound 203, N-(4-Benzoyl-phenyl)-2-(3-methylamino-pyrrolidin-1-yl)-acetamide]
- pIC50 (Human NPY5 receptor; [125I]PYY binding): 6.70
- pIC50 (Rat NPY5 receptor; [1]): 6.74

Compound: CC(C)(C)OC(=O)NC1CCN(CC(=O)Nc2ccc(C(=O)c3ccccc3)cc2)C1 (stereo not drawn) [Compound 205, {1-[(4-Benzoyl-phenylcarbamoyl)-methyl]-pyrrolidin-3-yl}-carbamic acid tert-butyl ester]
- pIC50 (Human NPY5 receptor; [125I]PYY binding): 7.14
- pIC50 (Rat NPY5 receptor; [1]): 7.15

Compound: CCNC1CCN(CC(=O)Nc2ccc(C(=O)c3ccccc3)cc2)C1 (stereo not drawn) [Compound 206, N-(4-Benzoyl-phenyl)-2-(3-ethylamino-pyrrolidin-1-yl)-acetamide]
- pIC50 (Human NPY5 receptor; [125I]PYY binding): 7.38
- pIC50 (Rat NPY5 receptor; [1]): 7.32

Compound: O=C(CN1CCC(NC(=O)C(F)(F)F)C1)Nc1ccc(C(=O)c2ccccc2)cc1 (stereo not drawn) [Compound 207]
- pIC50 (Human NPY5 receptor; [125I]PYY binding): 7.32
- pIC50 (Rat NPY5 receptor; [1]): 7.30

Compound: N#CCNCC(=O)Nc1ccc(C(=O)c2ccccc2)cc1 [Compound 211, N-(4-Benzoyl-phenyl)-2-(cyanomethyl-amino)-acetamide]
- pIC50 (Human NPY5 receptor; [125I]PYY binding): 5.89
- pIC50 (Rat NPY5 receptor; [1]): 6.00

Compound: O=C(CNCc1ccc(C(=O)O)cc1)Nc1ccc(C2CCCCC2)cc1 [Compound 212]
- pIC50 (Human NPY5 receptor; [125I]PYY binding): < 5.00
- pIC50 (Rat NPY5 receptor; [1]): < 5.00

Compound: C#CC(C)(C)NCC(=O)Nc1ccc(C2CCCCC2)cc1 [Compound 213, N-(4-Cyclohexyl-phenyl)-2-(1,1-dimethyl-prop-2-ynylamino)-acetamide]
- pIC50 (Human NPY5 receptor; [125I]PYY binding): 6.44
- pIC50 (Rat NPY5 receptor; [1]): 6.44

Compound: CN(C(=O)OC(C)(C)C)C1CCN(CC(=O)Nc2ccc(C3CCCCC3)cc2)C1 (stereo not drawn) [Compound 215, {1-[(4-Cyclohexyl-phenylcarbamoyl)-methyl]-pyrrolidin-3-yl)-methyl-carbamic acid tert-butyl ester]
- pIC50 (Human NPY5 receptor; [125I]PYY binding): 6.77
- pIC50 (Rat NPY5 receptor; [1]): 6.52

Compound: CCCC(CO)NCC(=O)Nc1ccc(C2CCCCC2)cc1 (stereo not drawn) [Compound 216, N-(4-Cyclohexyl-phenyl)-2-(1-hydroxymethyl-butylamino)-acetamide]
- pIC50 (Human NPY5 receptor; [125I]PYY binding): 6.35
- pIC50 (Rat NPY5 receptor; [1]): < 5.00

Compound: C=CCC(NCC(=O)Nc1ccc(C2CCCCC2)cc1)C(=O)O (stereo not drawn) [Compound 220, 2-{[(4-Cyclohexyl-phenylcarbamoyl)-methyl]-amino}-pent-4-enoic acid]
- pIC50 (Human NPY5 receptor; [125I]PYY binding): 6.27
- pIC50 (Rat NPY5 receptor; [1]): 6.14

Compound: CC(=O)OC1CC2CC1N(CC(=O)Nc1ccc(C3CCCCC3)cc1)C2 (stereo not drawn) [Compound 221, Acetic acid 2-[(4-cyclohexyl-phenylcarbamoyl)-methyl]-2-aza-bicyclo[2.2.1]hept-6-yl ester]
- pIC50 (Human NPY5 receptor; [125I]PYY binding): 7.54
- pIC50 (Rat NPY5 receptor; [1]): 7.54

Compound: O=C(CNCc1ccc(C(=O)O)cc1)Nc1ccc(C(=O)c2ccccc2)cc1 [Compound 222, 4-({[(4-Benzoyl-phenylcarbamoyl)-methyl]-amino}-methyl)-benzoic acid]
- pIC50 (Human NPY5 receptor; [125I]PYY binding): < 5.00
- pIC50 (Rat NPY5 receptor; [1]): < 5.00

Compound: C#CC(C)(C)NCC(=O)Nc1ccc(C(=O)c2ccccc2)cc1 [Compound 223, N-(4-Benzoyl-phenyl)-2-(1,1-dimethyl-prop-2-ynylamino)-acetamide]
- pIC50 (Human NPY5 receptor; [125I]PYY binding): 6.27
- pIC50 (Rat NPY5 receptor; [1]): 5.85

Compound: CN(C(=O)OC(C)(C)C)C1CCN(CC(=O)Nc2ccc(C(=O)c3ccccc3)cc2)C1 (stereo not drawn) [Compound 225, {1-[(4-Benzoyl-phenylcarbamoyl)-methyl]-pyrrolidin-3-yl)-methyl-carbamic acid tert-butyl ester]
- pIC50 (Human NPY5 receptor; [125I]PYY binding): 6.49
- pIC50 (Rat NPY5 receptor; [1]): 6.72

Compound: C=CCC(NCC(=O)Nc1ccc(C(=O)c2ccccc2)cc1)C(=O)O (stereo not drawn) [Compound 230, 2-{[(4-Benzoyl-phenylcarbamoyl)-methyl]-amino}-pent-4-enoic acid]
- pIC50 (Human NPY5 receptor; [125I]PYY binding): 6.09
- pIC50 (Rat NPY5 receptor; [1]): 5.60

Compound: CC(=O)OC1CC2CC1N(CC(=O)Nc1ccc(C(=O)c3ccccc3)cc1)C2 (stereo not drawn) [Compound 231, Acetic acid 2-[(4-benzoyl-phenylcarbamoyl)-methyl]-2-aza-bicyclo[2.2.1]hept-6-yl ester]
- pIC50 (Human NPY5 receptor; [125I]PYY binding): 7.17
- pIC50 (Rat NPY5 receptor; [1]): 7.13

Compound: O=C(CNCCCn1ccnc1)Nc1ccc(C2CCCCC2)cc1 [Compound 234, N-(4-Cyclohexyl-phenyl)-2-(3-imidazol-1-yl-propylamino)-acetamide]
- pIC50 (Human NPY5 receptor; [125I]PYY binding): 6.02
- pIC50 (Rat NPY5 receptor; [1]): 6.21

Compound: C=CCNCC(=O)Nc1ccc(C2CCCCC2)cc1 [Compound 235, 2-Allylamino-N-(4-cyclohexyl-phenyl)-acetamide]
- pIC50 (Human NPY5 receptor; [125I]PYY binding): 5.80
- pIC50 (Rat NPY5 receptor; [1]): 5.42

Compound: CC(=CC#N)NCC(=O)Nc1ccc(C2CCCCC2)cc1 [Compound 237, 2-(2-Cyano-1-methyl-vinylamino)-N-(4-cyclohexyl-phenyl)-acetamide]
- pIC50 (Human NPY5 receptor; [125I]PYY binding): 5.36
- pIC50 (Rat NPY5 receptor; [1]): 6.00

Compound: COC(=O)C=C(C)NCC(=O)Nc1ccc(C2CCCCC2)cc1 [Compound 238, 3-{[(4-Cyclohexyl-phenylcarbamoyl)-methyl]-amino}-but-2-enoic acid methyl ester]
- pIC50 (Human NPY5 receptor; [125I]PYY binding): 6.19
- pIC50 (Rat NPY5 receptor; [1]): 6.26

Compound: COC(CNCC(=O)Nc1ccc(C2CCCCC2)cc1)OC [Compound 241, N-(4-Cyclohexyl-phenyl)-2-(2,2-dimethoxy-ethylamino)-acetamide]
- pIC50 (Human NPY5 receptor; [125I]PYY binding): 6.55
- pIC50 (Rat NPY5 receptor; [1]): 6.64

Compound: O=C(CNC1CCC1)Nc1ccc(C(=O)c2ccccc2)cc1 [Compound 242, N-(4-Benzoyl-phenyl)-2-cyclobutylamino-acetamide]
- pIC50 (Human NPY5 receptor; [125I]PYY binding): 5.36
- pIC50 (Rat NPY5 receptor; [1]): 5.30

Compound: O=C(CNCCCn1ccnc1)Nc1ccc(C(=O)c2ccccc2)cc1 [Compound 244, N-(4-Benzoyl-phenyl)-2-(3-imidazol-1-yl-propylamino)-acetamide]
- pIC50 (Human NPY5 receptor; [125I]PYY binding): 6.17
- pIC50 (Rat NPY5 receptor; [1]): 5.52

Compound: CCN(CC)CCCC(C)NCC(=O)Nc1ccc(C(=O)c2ccccc2)cc1 (stereo not drawn) [Compound 246, N-(4-Benzoyl-phenyl)-2-(4-diethylamino-1-methyl-butylamino)-acetamide]
- pIC50 (Human NPY5 receptor; [125I]PYY): 5.80
- pIC50 (Rat NPY5 receptor; [2]): 5.77

Compound: O=C(CN1CCC(O)(Cc2ccccc2)CC1)Nc1ccc(-c2ccccc2)cc1 [Compound 315, 2-(4-Benzyl-4-hydroxy-piperidin-1-yl)-N-biphenyl-4-yl-acetamide; hydrochloride]
- pIC50 (Human NPY5 receptor; [125I]PYY): 6.10
- pIC50 (Rat NPY5 receptor; [2]): 5.70

Compound: CCC(=O)C1(c2ccccc2)CCN(CC(=O)Nc2ccc(-c3ccccc3)cc2)CC1 [Compound 317, N-Biphenyl-4-yl-2-(4-phenyl-4-propionyl-piperidin-1-yl)-acetamide: hydrochloride]
- pIC50 (Human NPY5 receptor; [125I]PYY): 8.00
- pIC50 (Rat NPY5 receptor; rNPY5 IC50, [125I]PYY): 7.96

Compound: N-(4-Cyclohexyl-phenyl)-2-(3-ethylamino-pyrrolidin-1-yl)-acetamide [Compound 196]
- pIC50 (Human NPY5 receptor; [125I]PYY binding): 7.37
- pIC50 (Rat NPY5 receptor; [1]): 7.31
